Experimental data as given in patent US20260091015A1, “TREATING IRON DEFICIENCY WITH FERRIC CARBOXYMALTOSE” (PHARMACOSMOS HOLDING A/S, priority 2018, published 2026).

Tests used:
[1] = Fractional urinary phosphate excretion, spot urine, trials IDA-04/IDA-05; assay type: in vivo, human; details: FCM vs IIM
Method: The term “fractionary urinary excretion of phosphate (FEPi)” (sometimes abbreviated FEPO4) is a measure of how much phosphate is not re-absorbed from the pre-urine in the kidneys, i.e., how much phosphate ends up in the urine as a proportion of how much phosphate the subject has in the blood. It is calculated like this: FEPi=[PO4 (Urine)*Creatinine (Serum)]/[PO4 (Serum)*Creatinine (Urine)]*100. An FEPi of 10-20% (0.1-0.2 fraction) is usually considered to be normal; an FEPi <10% (<0.1 fraction) is usually considered to be low; and an FEPi >20% (>0.2 fraction) is usually considered to be high. Phosphate in urine is measured using the same methodology as for serum.
The trial was a randomized, open-label, comparative trial. Subjects with Iron Deficiency Anaemia (IDA) were randomized 1:1 to one treatment course of one of the following treatments: • Group A: iron isomaltoside 1000 (Monofer®, Pharmacosmos, Holbok, Denmark, termed iron isomaltoside in the following), 1000 mg at baseline • Group B: ferric carboxymaltose (Ferinject®/Injectafer®, Vifor Inc, Switzerland), 750 mg at baseline and day 7, cumulative dose: 1500 mg […]

[2] = Incidence of hypophosphatemia / s-phosphate in randomized open-label trials IDA-04 and IDA-05; assay type: in vivo, human
Method: Two prospective randomized, open-label, comparative trials were performed comparing the incidence of hypophosphatemia in relation to treatment with iron isomaltoside (“IIM”, tradename Monofer®, Monoferric®) and ferric carboxymaltose (“FCM”, trade name Injectafer, Ferinject) in adult human subjects with iron deficiency anaemia.
(§1) The trial was a randomized, open-label, comparative trial. Subjects with Iron Deficiency Anaemia (IDA) were randomized 1:1 to one treatment course of one of the following treatments: • Group A: iron isomaltoside 1000 (Monofer®, Pharmacosmos, Holbok, Denmark, termed iron isomaltoside in the following), 1000 mg at baseline • Group B: ferric carboxymaltose (Ferinject®/Injectafer®, Vifor Inc, Switzerland), 750 mg at baseline and day 7, cumulative dose: 1500 mg
The primary endpoint was the incidence of hypophosphatemia (defined as s-phosphate <2 mg/dL) at any time from baseline to day 35. […]
The following safety laboratory assessments were analysed: • S-phosphate: inorganic phosphorous forms an ammonium phosphomolybdate complex having the formula (NH4)3[PO4](MoO3)12 with ammonium molybdate in the presence of sulfuric acid. The complex was determined photometrically in the ultraviolet region (340 nm) of the spectrum using the Roche Modular and Cobas Analyzer. • iFGF23 and cFGF23: the human intact FGF23 was measured by the 2nd generation Elisa kit manufactured by Immonotropics, Inc, San Clemente, CA. […] The human C-terminal FGF23 was measured by the Elisa kit manufactured by Immonotropics, Inc, San Clemente, CA. […] After evaporation under nitrogen, the residue was reconstituted and analyzed using Liquid Chromatography (LC) with Tandem Mass Spectrometric detection (MS/MS). […]

human intact FGF23 = assay: Intact FGF23 (iFGF23) over time, two-site ELISA, trials IDA-04/IDA-05; assay type: in vivo
Method: as §1
The secondary safety endpoints were the following: • Incidence of s-phosphate below 1.0 mg/dL at any time from baseline to day 35 • Time with hypophosphatemia (i.e. time with s-phosphate <2.0 mg/dL) from baseline to day 35 • Proportion of subjects with hypophosphatemia at day 35 • Absolute [Δ] and relative [%] changes in s-phosphate from baseline to 1, 7, 8, 14, 21, and 35 • Fractional phosphate urinary excretion at 1, 7, 8, 14, 21, and 35 • Change in iFGF23, cFGF23, vitamin D (25, 1,25, 24,25), PTH, and ionized calcium from baseline to 1, 7, 8, 14, 21, and 35 • Type and incidence of AEs • Serious or severe hypersensitivity reaction starting on or after the first dose of randomized treatment (i.e. treatment emergent). The hypersensitivity terms were defined as standardised Medical Dictionary for Regulatory Activities query (SMQ) terms. […]
The following safety laboratory assessments were analysed: • S-phosphate: inorganic phosphorous forms an ammonium phosphomolybdate complex having the formula (NH4)3[PO4](MoO3)12 with ammonium molybdate in the presence of sulfuric acid. The complex was determined photometrically in the ultraviolet region (340 nm) of the spectrum using the Roche Modular and Cobas Analyzer. • iFGF23 and cFGF23: the human intact FGF23 was measured by the 2nd generation Elisa kit manufactured by Immonotropics, Inc, San Clemente, CA. […] The human C-terminal FGF23 was measured by the Elisa kit manufactured by Immonotropics, Inc, San Clemente, CA. […] After evaporation under nitrogen, the residue was reconstituted and analyzed using Liquid Chromatography (LC) with Tandem Mass Spectrometric detection (MS/MS). […] A direct relationship exists between the amount of PTH present in the patient sample and the amount of relative light units (RLUs) detected by the system. • Ionized calcium: Measured by the IL GEM Premier 3500 PAK cartridge. […]

intact FGF23 = details: women with IDA secondary to heavy uterine bleeding; Wolf et al., 2013; cited from earlier work
[3] = FCM 750 mg at baseline and day 7 vs JIM 1000 mg at baseline, subjects with IDA, baseline to day 35

## ferric carboxymaltose [FCM]
[1]
  Fractional urinary excretion of phosphate: significantly increased
[2]; [3]
  rate of hypophosphatemia, moderate to severe form with serum phosphate below 2 mg/dL: significantly higher
  rate of hypophosphatemia, severe form of serum phosphate at or below 1.0 mg/dL: significantly higher
[2]; after FCM treatment
  serum phosphate: decrease
Human intact FGF23; first administration (750 mg), then gradually declined over days
  iFGF23 after administration: increased sharply
Human intact FGF23; repeated dosing one week apart
  increase in iFGF23 after second dose relative to first dose: 2-3 fold
Human intact FGF23; second administration (750 mg, day 7)
  iFGF23 on the second administration, relative to the initial level: several fold higher
Intact FGF23
  iFGF23 levels: temporarily increased
